This note sets out measurements from ChEMBL document CHEMBL6182945, “MMAE-Based Peptide-Drug Conjugates Targeting GPC3 for Precision Chemoradiotherapy in Hepatocellular Carcinoma” (J Med Chem, 2025).

The subject of experiment [1] is Huh-7. The experiment in a line: Cell cycle arrest in human Huh-7 cells assessed as accumulation of cells at G0/G1 phase at 10 nM measured after 24 hrs incubation by PI staining based flow cytometry (reference value: 47.97%). It is filed as functional. In general terms: In flow cytometry, cells or beads pass a laser one at a time.
Experiment [2] deals with Huh-7. The experiment in a line: In vivo antitumor activity against human Huh-7 cells xenografted in female BALB/c mouse assessed as gamma-H2AX positive cells at 1 mg/kg, iv followed by irradiated with 2 Gy for 2 consecutive days, once a week for 3 weeks measured on day 22. It is filed as functional, organism-based. The settings on record: time 22.0 day.
Experiment [3] concerns Hep 3B2. The experiment in a line: Cell cycle arrest in human Hep3B cells assessed as accumulation of cells at G0/G1 phase at 30 nM measured after 24 hrs incubation by PI staining based flow cytometry (reference value: 48%). It is filed as functional.
For experiment [4], the system named is Huh-7. In words: In vivo apoptotic activity against human Huh-7 cells xenografted in female BALB/c mouse assessed as tumor apoptosis at 2 mg/kg, iv total 4 doses measured on day 17 relative to control by TUNEL assay. It is filed as functional, organism-based. The settings on record: time 17.0 day. Background: Xenograft models place foreign cells or tissue in a host animal.

For experiment [5], the system named is LX-2. The experiment in a line: Cell cycle arrest in human LX-2 cells assessed as accumulation of cells at G2/M phase at 100 nM measured after 24 hrs incubation by PI staining based flow cytometry (reference value: 14.65%). Format: functional.
The test system of experiment [6] is Huh-7. In words: Decrease in CDK1 expression in human irradiated Huh-7 cells at 100 nM measured after 24 hrs by Western blot analysis relative to irradiation alone. Format: functional, cell-based.
In experiment [7] the test system is LX-2. In words: Cell cycle arrest in human LX-2 cells assessed as accumulation of cells at G0/G1 phase at 100 nM measured after 24 hrs incubation by PI staining based flow cytometry (reference value: 48.42%). Format: functional.
For experiment [8], the system named is Huh-7. In words: In vivo antitumor activity against human Huh-7 cells xenografted in female BALB/c mouse assessed as reduction in tumor volume at 1 mg/kg, iv total 4 doses measured on day 17 relative to control. It is filed as functional. Set-up: scale not given: the % may be the effect or the level left. The settings on record: time 17 day.
In experiment [9] the test system is Huh-7. In words: Cell cycle arrest in human Huh-7 cells assessed as accumulation of cells at S phase at 30 nM measured after 24 hrs incubation by PI staining based flow cytometry (reference value: 33.15%). Format: functional.
For experiment [10], the system named is Huh-7. In words: In vivo antitumor activity against human Huh-7 cells xenografted in female BALB/c mouse assessed as delay in tumor growth at 1 mg/kg, iv followed by irradiated with 2 Gy for 2 consecutive days, once a week for 3 weeks measured on day 22. Format: functional, organism-based. The settings on record: time 22.0 day.
The subject of experiment [11] is LX-2. The experiment in a line: Cell cycle arrest in human LX-2 cells assessed as accumulation of cells at G2/M phase at 30 nM measured after 24 hrs incubation by PI staining based flow cytometry (reference value: 14.65%). Format: functional.
In experiment [12] the test system is LX-2. In words: Cell cycle arrest in human LX-2 cells assessed as accumulation of cells at S phase at 10 nM measured after 24 hrs incubation by PI staining based flow cytometry (reference value: 36.93%). It is filed as functional.
In experiment [13] the test system is Huh-7. The experiment in a line: Cell cycle arrest in human Huh-7 cells assessed as accumulation of cells at G2/M phase at 100 nM measured after 24 hrs incubation by PI staining based flow cytometry (reference value: 18.88%). Format: functional.
The subject of experiment [14] is Huh-7. In words: Induction of immunogenic cell death (ICD) in human Huh-7 cells assessed as translocation of HMGB1 from nucleus to cytoplasm at 100 nM measured after 24 hrs by immunofluorescence assay. Format: functional, cell-based.
Experiment [15] has as its system Huh-7. The experiment in a line: Cell cycle arrest in human Huh-7 cells assessed as accumulation of cells at G2/M phase at 30 nM measured after 24 hrs incubation by PI staining based flow cytometry (reference value: 18.88%). Format: functional.
The test system of experiment [16] is Huh-7. The experiment in a line: Cell cycle arrest in human Huh-7 cells assessed as accumulation of cells at G0/G1 phase at 100 nM measured after 24 hrs incubation by PI staining based flow cytometry (reference value: 47.97%). It is filed as functional.
In experiment [17] the test system is Huh-7. The experiment in a line: Cell cycle arrest in human Huh-7 cells assessed as accumulation of cells at G0/G1 phase at 50 nM measured after 30 hrs incubation by PI staining based flow cytometry (reference value: 44.20%). Format: functional.
Experiment [18] has as its system Hep 3B2. The experiment in a line: Cell cycle arrest in human Hep3B cells assessed as accumulation of cells at G2/M phase at 10 nM measured after 24 hrs incubation by PI staining based flow cytometry (reference value: 23%). Format: functional.

Active and inactive are the calls of the source. No cut-off for these calls is given here.

With `CC[C@H](C)[C@@H]([C@@H](CC(=O)N1CCC[C@H]1[C@H](OC)[C@@H](C)C(=O)N[C@H](C)[C@@H](O)c1ccccc1)OC)N(C)C(=O)[C@@H](NC(=O)[C@H](C(C)C)N(C)C(=O)OCc1ccc(NC(=O)[C@H](CCCNC(N)=O)NC(=O)[C@@H](NC(=O)CCCCCN2C(=O)CC(SC[C@H](N)C(=O)N[C@@H](CO)C(=O)N[C@@H](CC(N)=O)C(=O)N[C@@H](CC(=O)O)C(=O)N[C@@H](CCCNC(=N)N)C(=O)N3CCC[C@@H]3C(=O)N3CCC[C@@H]3C(=O)N[C@@H](CC(N)=O)C(=O)N[C@H](C(=O)N[C@@H](CC(C)C)C(=O)N[C@@H](CCC(N)=O)C(=O)N[C@@H](CCCCN)C(=O)N[C@@H](CCCNC(=N)N)C(N)=O)[C@@H](C)CC)C2=O)C(C)C)cc1)C(C)C` (stereo partly drawn), the Activity in the experiment on Huh-7 [1] amounted to 50.55%; in the experiment with Hep 3B2 [3] it was 28.5%; with LX-2 [5], 23.65%; in the experiment with LX-2 [7], 39.1%; with Huh-7 [8], 40%; in the experiment on Huh-7 [9] it was 13.76%. Also, the Activity in the experiment with LX-2 [11] is 15.25%; in the experiment on LX-2 [12], 38.15%; in the experiment with Huh-7 [13], 76.34%; in the experiment with Huh-7 [15], 49.02%; with Huh-7 [16], 12.12%; with Huh-7 [17], 31.74%. In addition, in the experiment with Hep 3B2 [18], the Activity stood at 39.22%. The outcome with Huh-7 [2], in the experiment on Huh-7 [4], with Huh-7 [6], in the experiment with Huh-7 [10] and in the experiment on Huh-7 [14] was Active.
